Measured values published in patent US20110150914A1, “COMPOSITIONS AND METHODS FOR DENGUE VIRUS (DV) TREATMENT AND VACCINATION” (priority 2008, published 2011).

Test system: CD8^+ T cells
Assay: IFN-γ ELISPOT, HLA A*0201 transgenic mice
Assay type: cell-based
Conditions: HLA-A*0201-restricted Jurkat cells as APC, peptide 1 μg/ml, day 7 after 10^11 GE S221
Procedure: The proteome of the DENV2 strain, S221, was inspected for the presence of peptides predicted to bind HLA A*0201 with high affinity. A total of 68 potential H-2^b binding peptides were identified. HLA A*0201 transgenic mice were infected i.v. with 10^11 GE of the DENV2 strain, S221. Seven days post-infection, splenocytes were harvested and CD8^+ T cells isolated. CD8^+ T cells (1.75×10^5) were stimulated with HLA-A*0201-restricted Jurkat cells and 1 μg/ml of individual S221-derived A*02-predicted binding peptides, and IFN-γ ELISPOT was performed. The data are expressed as the mean number of net spot-forming cells (SFC) per 10^6 CD8^+ T cells. The top 20 predicted epitopes, which includes the two positive peptides identified (indicated with an asterisk), are shown. The criteria for positivity were a stimulation index of ≧2.0, p<0.05 when compared with an irrelevant control peptide, and net SFC/10^6 cells of ≧20.
The proteome of the DENV2 strain, S221, was inspected for the presence of peptides predicted to bind HLA A*0201 with high affinity. A total of 68 potential H-2^b binding peptides were identified. HLA A*0201 transgenic mice were infected intravenously (i.v.) with 10^11 GE of the DENV2 strain, S221. […] Referring to FIG. 11, the data are expressed as the mean number of net spot-forming cells (SFC) per 10^6 CD8^+ T cells. […]

| Sequence | IFN-γ ELISPOT positivity |
| --- | --- |
| KLAEAIFKL (listed as Dengue virus) | positive |
| RLITVNPIV | positive |
